Laboratory results: patent US20090098548A1, “MODULATORS OF ENZYMATIC NUCLEIC ACID ELEMENTS MOBILIZATION” (priority 2004, published 2009)
“Also recorded” adds a separate entry of the source. Where two headings read alike, the source gives them in different places.

Legend:
[1] = tested on: HIV-1
Description: HIV-1 transduction assay and inhibitory screen: 10,000 Ghost-R5 cells per well were plated in a 384 well plate in 49 μL media. 18 hours after plating, 1 μL of inhibitory compound, dissolved in DMSO, was added and gently mixed into solution. Following a 1 hour 37° C. incubation, HIV-1 virions were added in a final infectious volume of 100 μL. 44-48 hours after infection, 87 μL of media was removed from each well, and 13 μL/well of Bright-Glo luciferase detection reagent (Promega) was added. After a 2 minute incubation, the plates were read on a multiwell plate luminometer.
In parallel, cells infected with virus and compound were assayed for luciferase expression by the addition of […] of Bright-Glo reagent, as described above. In this way, effect of the inhibitory compounds on luciferase expression brought about by successful transduction was measured in the constant presence of the compounds.

[2] = tested on: HIV reverse transcription; test: Quantitative real-time PCR of reverse transcripts in acutely infected cells; format: cell-based, HIV-1; conditions: 75 μM inhibitor, QPCR
Description: Quantitative real-time PCR of reverse transcripts, detection of transduction in newly infected cells, and effect of compounds on established provirus expression in stably infected cells: 10,000 Ghost-R5 cells were plated in 96 well dishes, treated with compound in a total volume of 75 μL, and incubated at 37° C. for 1 hour. Virus was then added in an additional volume of 25 μL. The final infectious volume was 100 μL, the final DMSO concentration was 1%, and the final compound concentration was as indicated. DNA was harvested using the DNeasy kit (Qiagen) 24 hours after infection in the constant presence of inhibitory compounds. Late DNA products of HIV reverse transcription were quantitated using the primers MH531 and MH532, and the probe LTR-P, as described in Burke, T. R. et al., J Med Chem 38:4171-8, 1995, herein incorporated by reference in its entirety.

[3] = tested on: luciferase expression from proviral DNA; test: Established provirus luciferase expression in stably infected Ghost-R5 cells; format: cell-based, HIV-1; conditions: 75 μM inhibitor, chronically infected cells
Description: To assess the potential effects of the inhibitory compounds on post-integration events such as transcription, translation, and luciferase enzyme stability and activity, Ghost-R5 cells stably infected several weeks earlier with the same virus preparation were incubated with inhibitory compound in 96 well dishes and luciferase activity was monitored 48 hours later by the addition of 100 μL of Bright-Glo reagent to each well, as described above.

[4] = molecular target: T1, Tn5 transposase (Escherichia coli, UniProt Q46731, E54K/L372P/M56A); format: binding
T1 construct: made in house
Description: For FP analysis, 60 μL reactions were analyzed using the FP protocol on a Wallac Victor V plate reader and a 7% native polyacrylamide gel was used in gel shift assays. For compound screening and subsequent analysis, 1 μL of either DMSO or test compound (final concentration 80 KIM) was added to the synapsis reactions. Compound screening was carried out using a Beckman Coulter Biomek FX in a 384 well format. Compounds identified as hits were rescreened using gel shift assays under synapsis conditions with a 120 μM compound concentration. IC50 values were obtained by fitting inhibitor titration data (0, 0.01, 0.05, 0.1, 0.5, 2.5, 10, 20, 35, 50, 100, 200, 400, 800 μM) to an exponential decay.

[5] = molecular target: T2, HIV-1 integrase (Human immunodeficiency virus type 1 group M subtype B, UniProt P04585); test: HIV-1 integrase assay (3' strand processing, PAGE); format: biochemical; design: made in house
Description: (§1) HIV-1 integrase assay: HIV-1 integrase activity was measured as described in Daniel, R. et al., AIDS Res Hum Retroviruses 20:135-44, 2004 (incorporated by reference in its entirety), except that 1.0 μL of either DMSO or inhibitor were added to the reactions. Briefly, HIV-1 integrase (1 μM, final concentration) was pre-incubated with various concentrations of inhibitor at 30° C. for 30 min. A 21-base pair ^32P labeled substrate (1×10^6 dpm), representing the U5 end of the viral genome, and MnCl2 (10 mM, final concentration) were subsequently added to the reaction. The reaction proceeded for 15 min. at 37° C. The reactions were subsequently quenched using EDTA (10 mM, final concentration), and the products separated on a 20% denaturing polyacrylamide gel.

[6] = molecular target: T3, Tn5 transposase (EK54, MA56 and LP372 hyperactive mutant version) (Escherichia coli, UniProt Q46731, E54K/L372P/M56A); test: Inhibition of Tn5 transposase-DNA complex assembly (synapsis), gel shift assay; format: binding, prokaryotic (Tn5 transposon, IS4 family); conditions: 800 nM transposase, 160 nM dsDNA, 60 bp DNA, fit to exponential decay, ± SD from fit, at least two, typically three experiments
T3 construct: made in house
T3 sequence (Q46731 1-476 E54K/M56A/L372P): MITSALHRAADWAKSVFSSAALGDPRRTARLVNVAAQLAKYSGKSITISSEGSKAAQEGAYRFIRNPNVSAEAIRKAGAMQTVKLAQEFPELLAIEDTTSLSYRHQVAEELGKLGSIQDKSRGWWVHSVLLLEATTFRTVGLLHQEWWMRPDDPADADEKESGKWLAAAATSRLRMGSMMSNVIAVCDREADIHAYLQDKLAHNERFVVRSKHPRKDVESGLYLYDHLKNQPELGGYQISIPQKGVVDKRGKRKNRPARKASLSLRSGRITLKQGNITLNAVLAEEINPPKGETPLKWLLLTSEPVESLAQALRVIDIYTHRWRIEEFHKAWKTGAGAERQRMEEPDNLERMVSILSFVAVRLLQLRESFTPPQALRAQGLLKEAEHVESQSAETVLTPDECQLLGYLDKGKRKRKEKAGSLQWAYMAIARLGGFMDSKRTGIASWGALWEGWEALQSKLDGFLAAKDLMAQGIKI
Description: The data in this graph were obtained from multiple experiments. Each data point represents at least two, typically three, independent experiments. Error is represented as the standard deviation (SD) from the fit of the data to the equation used to calculate the IC50. Tnp=transposase.
IC50 values were determined from gel shift assays, similar to FIG. 5. […] Each value represents at least two, typically three, independent experiments. Error is represented as the standard deviation (SD) from the fit of the data to the equation used to calculate the IC50.
DNA substrates: The oligonucleotides were purchased HPLC purified from IDT. dsDNA was formed by adding two μmoles of each oligonucleotide to 10 mM Tris-HCl pH 7.9 and 10 mM NaCl. The oligonucleotides were either heated to 96° C. for one minute followed by a decrease in temperature at 0.1° C./sec to 4° C. or heated to 90° C. in a 2 L water bath and cooled to 8° C. overnight. The transferred strand was 5′ end labeled with either rhodamine green for FP or fluorescein for gel shift assays.
The 19 bp DNA sequences used for FP assays were 5° C. […] The 40 bp DNA sequences used for the gel shift assays during assay development were 5° C.
(§2) Transposase and integrase purification: The EK54, MA56 and LP372 hyperactive mutant version of transposase was used for all assays and is referred to as transposase throughout this work. Transposase and integrase proteins were purified as described in Ason, B., and W. S. Reznikoff, J Mol Biol 335:1213-25, 2004 and Taganov, K. D. et al., Journal of Virology 78:5848-55, 2004, both are herein incorporated by reference in their entirety.
FP and gel-shift assays: Reactions were performed as described in Ason, B., and W. S. Reznikoff, J Mol Biol 335:1213-25, 2004, except 800 nM transposase and 160 nM dsDNA were used for complex formation. For FP analysis, 60 μL reactions were analyzed using the FP protocol on a Wallac Victor V plate reader and a 7% native polyacrylamide gel was used in gel shift assays. For compound screening and subsequent analysis, 1 μL of either DMSO or test compound (final concentration […]) was added to the synapsis reactions. Compound screening was carried out using a Beckman Coulter Biomek FX in a 384 well format. Compounds identified as hits were rescreened using gel shift assays under synapsis conditions with a 120 μM compound concentration. IC50 values were obtained by fitting inhibitor titration data (0, 0.01, 0.05, 0.1, 0.5, 2.5, 10, 20, 35, 50, 100, 200, 400, 800 μM) to an exponential decay.

[7] = molecular target: T2, HIV-1 integrase; test: HIV-1 integrase in vitro activity, 3' strand processing (denaturing PAGE); format: biochemical; design: HIV-1 integrase (1 μM, final concentration); made in house
Description: The degree of 3′ strand processing is measured by the percentage of the signal obtained for the 3′ strand processing product relative to the total signal per lane. IN=integrase.
These values are calculated from data measuring the percentage of the 3′ strand processing product formed, as described in FIG. 6. Assay products are observed using PAGE, as described in the methods section. Each value represents at least two, typically three, independent experiments. Error is represented as the standard deviation (SD) from the fit of the data to the equation used to calculate the IC50.
Increasing concentrations (0.01, 0.1, 1, 10, 20, 30, 50, 75, 100 μM) of each compound were used to determine their ability to block HIV-1 integration in vivo and determine their inherent cytotoxicity, as described in the methods section of example 2 below. Reactions were performed in triplicate. Each compound is further analyzed for inhibition of integrase activity in vitro, as described in FIG. 6. Each value represents three independent experiments. Error is represented as the standard deviation (SD) from the fit of the data to the equation used to calculate the IC50. IN=integrase.
as §2, §1

[8] = 1 μM integrase, pre-incubated 30° C. 30 min, 21-base pair 32P substrate, 10 mM MnCl2, 15 min 37° C., ± SD from fit, at least two, typically three experiments, read-out: HIV-1 integrase (3' strand processing) IC50
[9] = read-out: HIV-1 IN (integrase) in vitro IC50

| Compound | IC50 [6] [µM] | also measured |
| --- | --- | --- |
| COc1ccc(N2C(=O)C(O)=C(C(=O)/C=C/c3ccccc3)C2c2cccc([N+](=O)[O-])c2)cc1 (stereo not drawn) [10-B] | – | inhibition of HIV-1 infection in cells (in words) [1]: inhibit; effect on reverse transcription (viral DNA synthesis) [2]: either uninhibited, or only inhibited to a small extent; also recorded: no significant inhibitory effect; effect on luciferase expression from proviral DNA [3]: no significant inhibitory effect; inhibition of transposase assembly (in words) [4]: inhibit; inhibition of integrase in vitro (in words) [5]: inhibit |
| O=c1oc2ccccc2c(O)c1C(c1cccc(F)c1)c1c(O)c2ccccc2oc1=O [Compound 1] | 8.1 ± 1.2 | – |
| COc1ccc(C(c2c(O)c3ccccc3oc2=O)c2c(O)c3ccccc3oc2=O)cc1CSc1ccccn1 [Compound 2] | 4.8 ± 0.4 | – |
| Cc1ccc(C(c2c(O)c3ccccc3oc2=O)c2c(O)c3ccccc3oc2=O)cc1 [Compound 3] | 3.5 ± 0.4 | – |
| COc1ccc(C(c2c(O)c3ccccc3oc2=O)c2c(O)c3ccccc3oc2=O)cc1Cn1nc(C)c([N+](=O)[O-])c1C [Compound 4] | 4.7 ± 0.4 | IC50 [7, 8]: 9 ± 2 µM |
| COc1cc(C=C2SC(=S)NC2=O)cc(Cl)c1OC(C)C [Compound 5] | 10 ± 1 | – |
| O=S(=O)(c1cc(Cl)cc(Cl)c1O)c1cc(Cl)cc(Cl)c1O [Compound 6] | 4 ± 0.3 | IC50 [7, 8]: 32 ± 9 µM |
| CCc1nnc(NS(=O)(=O)c2ccc(NC=CC(=O)c3ccc4ccccc4c3)cc2)s1 [Compound 7] | 4 ± 0.6 | – |
| Cc1ccc(C(=O)Nc2ccccc2C(=O)Nc2ccccc2C(=O)O)cc1 [Compound 8] | 8.7 ± 1 | – |
| O=C1C(=C2c3ccccc3C(=O)C2C2c3ccccc3Oc3ccccc32)C(=O)c2ccccc21 (stereo not drawn) [Compound 9] | 3.4 ± 0.7 | – |
| O=C(C1=C(O)C(=O)N(c2ccccc2)C1c1cccc([N+](=O)[O-])c1)c1ccccc1 (stereo not drawn) [Compound 10-A] | – | IC50 [7, 9]: 165 ± 35 µM |
| COc1ccc(N2C(=O)C(O)=C(C(=O)/C=C/c3ccccc3)C2c2cccc([N+](=O)[O-])c2)cc1 (stereo not drawn) [Compound 10-B] | – | IC50 [7, 9]: 22 ± 12 µM |
| COc1ccc(N2C(=O)C(O)=C(C(=O)/C=C/c3ccccc3)C2c2ccc([N+](=O)[O-])cc2)cc1 (stereo not drawn) [Compound 10-C] | – | IC50 [7, 9]: 46 ± 12 µM |
| O=C(/C=C/c1ccccc1)C1=C(O)C(=O)N(c2cccc(C(=O)O)c2)C1c1ccc([N+](=O)[O-])cc1 (stereo not drawn) [Compound 10-D] | – | IC50 [7, 9]: 87 ± 9 µM |
| COc1ccc(N2C(=O)C(O)=C(C(=O)/C=C/c3ccccc3)C2c2ccc(Cl)cc2)cc1 (stereo not drawn) [Compound 10-E] | – | IC50 [7, 9]: 12 ± 3 µM |
| O=C(/C=C/c1ccccc1)C1=C(O)C(=O)N(c2cccc(C(F)(F)F)c2)C1c1ccc([N+](=O)[O-])cc1 (stereo not drawn) [Compound 10-F] | – | IC50 [7, 9]: 11 ± 4 µM |
| Cc1ccccc1N1C(=O)C(O)=C(C(=O)/C=C/c2ccccc2)C1c1ccc(Br)cc1 (stereo not drawn) [Compound 10-G] | – | IC50 [7, 9]: 11 ± 2 µM |
| O=C(/C=C/c1ccccc1)C1=C(O)C(=O)N(c2ccccc2)C1c1cccc([N+](=O)[O-])c1 (stereo not drawn) [Compound 10] | 35 ± 3 | – |
| COc1cccc(OCCOc2cccc(C=C3SC(=S)NC3=O)c2)c1 [Compound 11] | 5.3 ± 0.9 | – |
| COc1cccc(C(c2c(O)c3ccccc3oc2=O)c2c(O)c3ccccc3oc2=O)c1 [Compound 12] | 9.5 ± 0.9 | – |
| COc1cc(C=C2SC(=S)NC2=O)ccc1OS(=O)(=O)c1ccccc1[N+](=O)[O-] [Compound 14] | 8.6 ± 0.8 | IC50 [7, 8]: 17 ± 3 µM |
| O=C(Nc1ccccc1C(=O)O)c1ccc2c(c1)C(=O)N(c1ccccc1-c1ccccc1)C2=O [Compound 15] | 20 ± 2 | – |
| O=C(Nc1ccccc1C(=O)O)c1cccc(NC(=O)C(c2ccccc2)c2ccccc2)c1 [Compound 16] | 46 ± 5 | – |
| O=C(Nc1ccccc1C(=O)O)c1ccc(NC(=O)C(c2ccccc2)c2ccccc2)cc1 [Compound 17] | 9.3 ± 0.9 | – |
| O=C(O)C(Cc1ccccc1)N1C(=O)C(=Cc2ccc(Br)cc2)SC1=S (stereo not drawn) [Compound 18] | 10 ± 1 | – |
| O=C(O)C(Cc1ccccc1)N1C(=O)C(=CC=Cc2ccccc2)SC1=S (stereo not drawn) [Compound 19] | 16 ± 2 | – |
| CCCOc1ccc(C(=O)Nc2ccc(Br)cc2C(=O)O)cc1 [Compound 20] | 20 ± 3 | – |
| O=C(NC(=S)Nc1cc([N+](=O)[O-])cc(Cl)c1O)c1ccccc1 [aromatic thiourea] | – | IC50 ([4]; read-out: IC50, inhibition of Tn5 transposase-DNA complex assembly, gel shift assays, inhibitor titration): 24 µM |
| O=C(C1=C(O)C(=O)N(c2ccccc2)C1c1cccc([N+](=O)[O-])c1)c1ccccc1 (stereo not drawn) [compound 10-A] | – | inhibition of integrase in vitro (in words) [5]: impedes its efficacy as an integrase inhibitor |
